Measurements from publication PMC9207808 (ACS Chemical Biology, 2022).
Residues, ends and D or L forms follow the SMILES beside them.

Tests used:
[1] = system: DocSTm; assay: Differential scanning fluorimetry (thermal stabilisation of Doc); type: binding, S. Typhimurium; conditions: for melting temperature shift ΔTm: DSF, DocSTm 5 μM, analyte 50 μM, Tm with analyte minus Tm of free DocSTm (42.9 ± 0.9 °C), SYPRO Orange, 20 mM K2HPO4, 50 mM (NH4)2SO4, pH 8.0, triplicate; for Average Tm / Tm: DocSTm 5 µM + 50 µM binder; for Average Tm: average of 3 replicates
How it was run: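 Thermal shift of 5 μM Doc in 20 mM K2HPO4, 50 mM (NH4)2SO4, pH 8.0 with 3× SYPRO Orange, heated from 25 to 95 °C in a qPCR instrument, in triplicate. Melting temperatures from Boltzmann sigmoid fits of the transition region.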

[2] = molecular target: DocSTm; assay: Surface plasmon resonance binding to immobilised Doc; parameters: species or system S. Typhimurium; conditions: for koff × 10^-6 / kon × 10^6: 1:1 kinetic fit, mean ± SD of at least 3 replicates; for kon × 10^6: single-cycle kinetics (multicycle for PhdSTm1-73); for Half-life of the complex: t1/2 = ln2 / koff; for gain of affinity compared to peptide 1: SPR Kd relative to peptide 1
How it was run: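 Doc captured on an NTA chip at 22 °C in 10 mM HEPES, 500 mM NaCl, 50 μM EDTA, 0.005% TWEEN 20, pH 8.0. Analytes injected as 80 s pulses at 30 μL/min in multicycle or single-cycle kinetics.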

[3] = system: DocSTm; assay: Dot blot phosphorylation assay (EF-Tu phosphorylation by Doc); type: biochemical, S. Typhimurium; conditions: DocSTm 1 μM, EF-TuSTm 3 μM, ATP 1 mM; for inhibition of EF-TuSTm phosphorylation by DocSTm (in words): α-pThr, inhibitor 10 μM to 5 nM (3-fold dilutions), 16 h at RT
How it was run: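 Doc-mediated phosphorylation of EF-Tu was run for 16 h at RT, then the samples were spotted on nitrocellulose. Phospho-EF-Tu was detected with a rabbit monoclonal anti-phosphothreonine antibody and an HRP anti-rabbit secondary, read by chemiluminescence.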

[4] = system: S. Typhimurium (14028) Δphd-doc::Km strains coexpressing DocSTm; assay: Growth rescue experiment in S. Typhimurium; type: cell-based; conditions: coexpression of DocSTm (pBAD33, arabinose) and Phd construct (pCA24N, basal expression); OD600 over time, M9 minimal medium; average of three independent experiments
Method: The cotransformations above were also performed with an empty pBAD33 plasmid, as a control for the absence of DocSTm expression.
For the growth rescue experiment, overnight (1% tryptone, 0.5% yeast extract, 0.5% NaCl, 1% glucose, 100 μg/mL of carbenicillin, and 34 μg/mL of chloramphenicol) cultures of the generated S. Typhimurium strains were diluted to an OD600 of approximately 0.006 into fresh M9 minimal medium supplemented with 0.5% or 1% arabinose, 0.4% glycerol, 0.4% casamino acids, 100 μg/mL of carbenicillin, and 34 μg/mL of chloramphenicol. Cell growth at a given time was monitored at OD600 with a Genesys 140 Visible Spectrophotometer (Thermo Scientific).

[5] = SPR, kinetic fit, KD calculated from mean koff and kon, SD propagated, 22 °C, pH 8.0

## CC[C@H](C)[C@H](NC(=O)[C@H](C)NC(=O)[C@H](C)NC(=O)[C@H](Cc1ccccc1)NC(=O)[C@H](CCC(=O)O)NC(=O)[C@H](CC(=O)O)NC(=O)[C@H](CC(=O)O)NC(=O)[C@H](CCSC)NC(=O)[C@H](Cc1c[nH]c2ccccc12)NC(C)=O)C(=O)N[C@@H](CCSC)C(=O)N[C@@H](C)C(=O)N[C@H](C(=O)N[C@@H](Cc1c[nH]cn1)C(=O)NCC(=O)N[C@@H](CC(N)=O)C(=O)N[C@@H](CCC(=O)O)C(=O)N[C@@H](CC(C)C)C(=O)N[C@@H](CCCNC(=N)N)C(=O)N[C@@H](CCC(=O)O)C(=O)N[C@@H](CC(C)C)C(=O)N[C@@H](C)C(=O)N[C@@H](CC(=O)O)C(=O)N[C@@H](CCCCN)C(=O)O)C(C)C [peptide 1] (Ac-WMDDEFAAIMAVHGNELRELADK-OH)
[1]
  melting temperature shift ΔTm: 28.8 ± 0.9 °C
  Average Tm: 71.7 ± 0.1 °C
[1]; replicate 1
  Tm: 71.8 °C
[1]; replicate 2
  Tm: 71.5 °C
[1]; replicate 3
  Tm: 71.6 °C
[2]; SPR kinetic fit, replicate 1
  Kd: 0.0734 nM
[2]; SPR kinetic fit, replicate 2
  Kd: 0.0838 nM
[2]; SPR kinetic fit, replicate 3
  Kd: 0.0591 nM
[2]; SPR kinetic fit, replicate 4
  Kd: 0.0819 nM
[2]; SPR, 22 °C, pH 8.0
  koff × 10^-6: 91 ± 11 ×10^-6 s-1
  kon × 10^6: 1.250 ± 0.259 ×10^6 M-1 s-1
[2]
  Half-life of the complex: 2.1 ± 0.3 h
[3]
  concentration at which EF-TuSTm phosphorylation is fully inhibited: ≥ 1 µM
  inhibition of EF-TuSTm phosphorylation by DocSTm (in words): comparable inhibition of the kinase activity
[4]
  rescue of Salmonella growth from DocSTm-induced growth inhibition (in words): only rescued growth after a delay and longer incubation times of 16–18 h

## CC[C@H](C)[C@H](NC(=O)[C@H](C)NC(=O)[C@H](C)NC(=O)[C@H](Cc1ccccc1)NC(=O)[C@H](CCC(=O)O)NC(=O)[C@H](CC(=O)O)NC(=O)[C@H](C)NC(=O)[C@H](CCSC)NC(=O)[C@H](Cc1c[nH]c2ccccc12)NC(C)=O)C(=O)N[C@@H](CCSC)C(=O)N[C@@H](C)C(=O)N[C@H](C(=O)N[C@@H](Cc1c[nH]cn1)C(=O)NCC(=O)N[C@@H](CC(N)=O)C(=O)N[C@@H](CCC(=O)O)C(=O)N[C@@H](CC(C)C)C(=O)N[C@@H](CCCNC(=N)N)C(=O)N[C@@H](CCC(=O)O)C(=O)N[C@@H](CC(C)C)C(=O)N[C@@H](C)C(=O)N[C@@H](CC(=O)O)C(=O)N[C@@H](CCCCN)C(=O)O)C(C)C [peptide 3] (Ac-WMADEFAAIMAVHGNELRELADK-OH; C-terminus assumed)
[1]
  melting temperature shift ΔTm: 25.6 ± 0.9 °C
  Average Tm: 68.5 ± 0.3 °C
[1]; replicate 1
  Tm: 68.3 °C
[1]; replicate 2
  Tm: 68.4 °C
[1]; replicate 3
  Tm: 68.8 °C
[2]; SPR
  improvement in koff compared with 1: ~1.5 fold
  improvement in kon compared with 1: ~4 fold
[2]
  gain of affinity compared to peptide 1: greater than 5 fold
  Half-life of the complex: 2.9 ± 0.8 h
[2]; SPR kinetic fit, replicate 1
  Kd: 0.0121 nM
[2]; SPR kinetic fit, replicate 2
  Kd: 0.0166 nM
[2]; SPR kinetic fit, replicate 3
  Kd: 0.00992 nM
[2]; SPR, 22 °C, pH 8.0
  koff × 10^-6: 65 ± 18 ×10^-6 s-1
  kon × 10^6: 5.073 ± 0.369 ×10^6 M-1 s-1
[2]; [5]
  Kd: 0.013 nM
[3]
  inhibition of EF-TuSTm phosphorylation by DocSTm (in words): inhibited DocSTm at similar concentrations to peptide 1
[4]
  rescue of Salmonella growth from DocSTm-induced growth inhibition (in words): a faster recovery was achieved

## CC[C@H](C)[C@H](NC(=O)[C@H](C)NC(=O)[C@H](C)NC(=O)[C@H](Cc1ccccc1)NC(=O)[C@H](CCC(=O)O)NC(=O)[C@H](C)NC(=O)[C@H](CC(=O)O)NC(=O)[C@H](CCSC)NC(=O)[C@H](Cc1c[nH]c2ccccc12)NC(C)=O)C(=O)N[C@@H](CCSC)C(=O)N[C@@H](C)C(=O)N[C@H](C(=O)N[C@@H](Cc1c[nH]cn1)C(=O)NCC(=O)N[C@@H](CC(N)=O)C(=O)N[C@@H](CCC(=O)O)C(=O)N[C@@H](CC(C)C)C(=O)N[C@@H](CCCNC(=N)N)C(=O)N[C@@H](CCC(=O)O)C(=O)N[C@@H](CC(C)C)C(=O)N[C@@H](C)C(=O)N[C@@H](CC(=O)O)C(=O)N[C@@H](CCCCN)C(=O)O)C(C)C [peptide 4] (Ac-WMDAEFAAIMAVHGNELRELADK-OH; C-terminus assumed)
[1]
  melting temperature shift ΔTm: 26.2 ± 0.9 °C
  Average Tm: 69.1 ± 0.2 °C
[1]; replicate 1
  Tm: 69.0 °C
[1]; replicate 2
  Tm: 69.3 °C
[1]; replicate 3
  Tm: 69.1 °C
[2]; SPR
  improvement in koff compared with 1: ~1.5 fold
  improvement in kon compared with 1: ~4 fold
[2]
  gain of affinity compared to peptide 1: greater than 5 fold
  Half-life of the complex: 3.1 ± 0.8 h
[2]; SPR kinetic fit, replicate 1
  Kd: 0.0128 nM
[2]; SPR kinetic fit, replicate 2
  Kd: 0.0166 nM
[2]; SPR kinetic fit, replicate 3
  Kd: 0.0101 nM
[2]; SPR, 22 °C, pH 8.0
  koff × 10^-6: 62 ± 17 ×10^-6 s-1
  kon × 10^6: 4.733 ± 0.155 ×10^6 M-1 s-1
[2]; [5]
  Kd: 0.013 nM
[3]
  inhibition of EF-TuSTm phosphorylation by DocSTm (in words): inhibited DocSTm at similar concentrations to peptide 1
[4]
  rescue of Salmonella growth from DocSTm-induced growth inhibition (in words): restored bacterial growth following similar kinetics as the wild-type sequence

## CC[C@H](C)[C@H](NC(=O)[C@H](C)NC(=O)[C@H](C)NC(=O)[C@H](C)NC(=O)[C@H](CCC(=O)O)NC(=O)[C@H](CC(=O)O)NC(=O)[C@H](CC(=O)O)NC(=O)[C@H](CCSC)NC(=O)[C@H](Cc1c[nH]c2ccccc12)NC(C)=O)C(=O)N[C@@H](CCSC)C(=O)N[C@@H](C)C(=O)N[C@H](C(=O)N[C@@H](Cc1c[nH]cn1)C(=O)NCC(=O)N[C@@H](CC(N)=O)C(=O)N[C@@H](CCC(=O)O)C(=O)N[C@@H](CC(C)C)C(=O)N[C@@H](CCCNC(=N)N)C(=O)N[C@@H](CCC(=O)O)C(=O)N[C@@H](CC(C)C)C(=O)N[C@@H](C)C(=O)N[C@@H](CC(=O)O)C(=O)N[C@@H](CCCCN)C(=O)O)C(C)C [peptide 6] (Ac-WMDDEAAAIMAVHGNELRELADK-OH; C-terminus assumed)
[1]
  melting temperature shift ΔTm: 21.1 ± 1.0 °C
  Average Tm: 64.0 ± 0.5 °C
[1]; replicate 1
  Tm: 64.5 °C
[1]; replicate 2
  Tm: 64.1 °C
[1]; replicate 3
  Tm: 63.5 °C
[2]; SPR Kd ratio
  affinity to DocSTm greater than that of peptides 7, 10 and 14: at least 12 fold
[2]; SPR Kd relative to wild-type peptide 1
  fold decrease in affinity (given as decrease/loss in Kd) compared with peptide 1: 8- to 30 fold
[2]; SPR kinetic fit, replicate 1
  Kd: 1 nM
[2]; SPR kinetic fit, replicate 2
  Kd: 0.919 nM
[2]; SPR kinetic fit, replicate 3
  Kd: 0.745 nM
[2]; SPR, 22 °C, pH 8.0
  koff × 10^-6: 843 ± 231 ×10^-6 s-1
  kon × 10^6: 0.989 ± 0.434 ×10^6 M-1 s-1
[2]; [5]
  Kd: 0.852 nM
[2]
  Half-life of the complex: 0.23 ± 0.06 h
[3]
  inhibition of EF-TuSTm phosphorylation by DocSTm (in words): among the poorest inhibitors of EF-TuSTm phosphorylation
[4]
  rescue of Salmonella growth from DocSTm-induced growth inhibition (in words): not able to counteract DocSTm-induced growth inhibition of Salmonella
